Test: recombinant barcode read abundance after kanamycin selection (control-corrected) (log10(CPM+1)); higher = more efficient recombination; sequences stand for … in AGTGCAGAGAAAATCGGCCAGTTTTCTCTGCCTGCAGTCCGCATGCCGT…AGATTTATGCAGCGGACTGCCTTTCTCCCAAAGTGATAAACCGGACAGTATCATGGACCGGTTTTCCCGGTAATCCGTATTTGCAAGGTTGGTTTCACT; site = the 11-nt target
Outline: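 Recombination efficiency in this pooled E. coli screen uses counts per million of barcodes at recombinant junctions, averaged and corrected against the control. The reported form is log10(CPM+1). Two replicates were plated on chloramphenicol/ampicillin LB agar as control and two on chloramphenicol/ampicillin/kanamycin with 0.1 mM IPTG.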
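Also: IS621 recombinase and bridge RNA in Escherichia coli cells.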

Sequence | recombinant barcode read abundance (log10)
AGGTTCCCTTGGGTTCTAACCTGTTGCTT (site AGGTTCCCTGA) | 0.621
AGGTTCCCTTGGGTTCTAACCTGTTGCTT (site AGGTTCCCTTA) | 0.183
AGGTTTGCTTGGGTTCTAACCTGTTGCCT (site AGGTATGCTAG) | 0.168
AGGTTTGCTTGGGTTCTAACCTGTTGCCT (site AGGTCTGCTAG) | 0.471
AGGTTTGCTTGGGTTCTAACCTGTTGCCT (site AGGTGTGCTAG) | 0.018
AGGTTTGCTTGGGTTCTAACCTGTTGCCT (site AGGTTTGCTAG) | 0.0479
AGGTTTGCTTGGGTTCTAACCTGTTGCTT (site AGGTTTGCTAA) | 0.00886
AGGTTTGCTTGGGTTCTAACCTGTTGCTT (site GTCACAACTCG) | 0.101
AGTACGCCTTGGGTTCTAACCTGTTGCCT (site AGTACGCCTAG) | 0.0474
AGTACGCCTTGGGTTCTAACCTGTTGCCT (site TGAACGCCTAG) | 0.07
AGTAGAACTTGGGTTCTAACCTGTTGCCT (site AGTAGAACTAG) | 0.387
AGTAGAACTTGGGTTCTAACCTGTTGCCT (site CGTAGAGCTAG) | 0.172
AGTAGGACTTGGGTTCTAACCTGTTGCCT (site AGTAGGACTAG) | 0.242
AGTAGGACTTGGGTTCTAACCTGTTGCCT (site CGTAGGACTAG) | 0
AGTAGGACTTGGGTTCTAACCTGTTGCCT (site GGTAGGACTAG) | 0.0674
AGTAGGACTTGGGTTCTAACCTGTTGCCT (site TGTAGGACTAG) | 0.213
AGTAGTTCTTGGGTTCTAACCTGTTGCAG (site AGTAGTTCTCT) | 0.683
AGTAGTTCTTGGGTTCTAACCTGTTGCAG (site CTCGTAGCTAG) | 0.104

Sequence | recombinant barcode read abundance (log10)
AGTCAAACTTGGGTTCTAACCTGTTGCCT (site AGTCAAACTAG) | 0.157
AGTCAAACTTGGGTTCTAACCTGTTGCCT (site AGTCATACTAG) | 0.141
AGTCACACTTGGGTTCTAACCTGTTGCTA (site AGTCACACTCA) | 0.179
AGTCACACTTGGGTTCTAACCTGTTGCTA (site AGTCACACTTA) | 1.48
AGTCAGTCTTGGGTTCTAACCTGTTGCGT (site AGTCAGTCTAC) | 2.33
AGTCAGTCTTGGGTTCTAACCTGTTGCGT (site AGTCATTCTAT) | 0.0526
AGTCATACTTGGGTTCTAACCTGTTGCCT (site AGTCAAACTAG) | 0
AGTCATACTTGGGTTCTAACCTGTTGCCT (site AGTCATACTAG) | 0.232
AGTCATCCTTGGGTTCTAACCTGTTGCCT (site AGTCATACTAT) | 0.0998
AGTCATCCTTGGGTTCTAACCTGTTGCCT (site AGTCATCCTAG) | 0.667
AGTCCTGCTTGGGTTCTAACCTGTTGCCT (site AGTCCTGCTAG) | 0.722
AGTCCTGCTTGGGTTCTAACCTGTTGCCT (site CGTCCTGCTAG) | 0.072
AGTCCTGCTTGGGTTCTAACCTGTTGCCT (site GGTCCTGCTAG) | 0.154
AGTCCTGCTTGGGTTCTAACCTGTTGCCT (site TGTCCTGCTAG) | 0.0318
AGTCGATCTTGGGTTCTAACCTGTTGCTT (site ACTCGATCTAG) | 0.0101
AGTCGATCTTGGGTTCTAACCTGTTGCTT (site AGTCGATCTAA) | 0.496
AGTCGGCCTTGGGTTCTAACCTGTTGCCT (site AGTCGGCCTAG) | 0.129
AGTCGGCCTTGGGTTCTAACCTGTTGCCT (site ATTCGGCCTAG) | 0.228

From the supplement of paper PMC11208160
